From US8283481B2, “Inhibitors of a 9-cis epoxycarotenoid dioxygenase” (National Research Council of Canada, priority 2008, dated 2012)

What was measured:
recombinant AtNCED3 = biological target: T1, recombinant AtNCED3 (Arabidopsis thaliana, UniProt Q9LRR7); assay: Recombinant AtNCED3 in vitro enzyme assay (HPLC, cleavage of 9-cis-neoxanthin); type: biochemical; conditions: for Ki: Dixon plot, competitive inhibition, 0-250 μM inhibitor, 9-cis-neoxanthin at 50 (55), 30 and 10 μM; for relative inhibition of AtNCED3 activity (in words): in vitro enzyme assay, 1 mM concentration (FIG. 5)
T1 construct: glutathione-S-transferase (GST) (C); made in house; host or cells: E. coli BL21(DE3), pRL296 vector
T1 sequence (Q9LRR7 41-599): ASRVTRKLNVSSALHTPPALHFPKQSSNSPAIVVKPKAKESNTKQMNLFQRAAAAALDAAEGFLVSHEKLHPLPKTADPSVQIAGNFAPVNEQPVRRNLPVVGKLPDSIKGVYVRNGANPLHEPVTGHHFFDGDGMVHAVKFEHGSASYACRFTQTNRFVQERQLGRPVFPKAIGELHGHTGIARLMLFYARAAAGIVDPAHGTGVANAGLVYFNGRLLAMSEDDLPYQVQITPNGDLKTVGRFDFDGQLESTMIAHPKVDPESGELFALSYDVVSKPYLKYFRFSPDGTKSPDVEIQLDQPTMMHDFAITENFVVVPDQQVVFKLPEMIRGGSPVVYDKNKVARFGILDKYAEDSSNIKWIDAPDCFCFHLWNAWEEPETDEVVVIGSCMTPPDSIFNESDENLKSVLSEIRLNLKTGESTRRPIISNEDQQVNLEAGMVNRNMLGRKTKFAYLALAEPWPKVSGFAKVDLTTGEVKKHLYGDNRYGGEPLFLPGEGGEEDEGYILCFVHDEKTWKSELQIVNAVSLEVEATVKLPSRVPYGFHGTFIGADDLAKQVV
Description: Fresh spinach was macerated under liquid nitrogen and extracted five times with three volumes of methanol/0.1% KOH. Samples were dried using a roto-evaporator, resuspended in acetone and then chilled on ice for one hour. The solvent was subsequently transferred to a new flask, roto-evaporated and resuspended in acetonitrile/acetone (1:1) mixture. The mixture was applied to a gravity flow column containing C-18 silica gel (Sigma) equilibrated in 65% acetonitrile/35% water (solvent C). The column was washed with 49% acetone (solvent D)/51% solvent A and 20 mL of 55% solvent D/45% solvent A while collecting 5 mL fractions. Fractions containing neoxanthin were pooled, dried, and resuspended in 100 μL of methanol. The pooled mixture was separated using an Agilent 1100 series HPLC and a Supelcosil™ LC-18 (25 cm×10 mm, 5 m) (Supelco) column equilibrated with solvent A. The HPLC method consisted of a linear gradient over 30 minutes from 100% solvent A to 100% solvent D with a flow rate of 4 mL/minute at 22° C. and monitored with a PDA detector at 436 nm. The neoxanthin fractions were collected, dried and resuspended in ethanol. Neoxanthin was quantified by determining its OD439 using a PerkinElmer Lambda 35 UV/VIS Spectrometer and applying its extinction coefficient of 2243 (A^1%1cm).^30
AtNCED3 was over-expressed using the pRL296 expression vector (a gift from M. Cygler, BRI, Montreal) in E. coli (BL21)DE3 cells as a glutathione-S-transferase fusion protein and affinity purified using glutathione sepharose 4 fast flow resin (GE Healthcare) as described previously.^35 Essentially, cells were grown to an OD600 of 0.45 at 37° C. and 200 rpm shaking. The culture was induced with 1 mM isopropyl-β-d-thiogalactoside for 16 h at 15° C. and 200 rpm shaking. The cells were pelleted and resuspended in 50 mM Tris-HCl (pH 8.0) 1 mM DTT and 0.5% protease inhibitor cocktail set III (CalBiochem). Cells were lysed using a french press at 20,000 psi and affinity purified as per manufacturer's instructions (GE Healthcare). Protein concentration was determined by the method of Bradford.^36
Enzymatic assays contained 100 mM Bis-Tris (pH 6.7), […], 10 mM ascorbate, 0.05% Triton™ X-100, catalase (1 mg/mL), neoxanthin and inhibitor to a total volume of 5 L of ethanol and 8 g AtNCED3 to a total assay volume of 100 L. Assays were incubated at 22° C. for 20 min. The assays were stopped with the addition of 50 L of 25% Triton™ X-100 and extracted with 150 L of ethyl acetate. All procedures were performed under red-light to minimize photo-induced damage to assay components and products.^6 Fine chemicals and solvents were purchased from Sigma-Aldrich. 75 μL of the assay extract was injected into an Agilent 1100 series HPLC machine equipped with a Supelcosil™ LC-18 (3.3 cm×4.6 mm, 3 m) (Supelco) column pre-equilibrated with 15% acetonitrile (solvent B)/85% water (solvent A). Solvent B increased to 35% over ten minutes, followed by a linear gradient of 65% solvent B to 100% solvent D over 10 minutes. Solvent D was maintained at 100% for 2 minutes and then the column was returned to 15% solvent B for 5 min. The flow rate was maintained at 1.5 mL/min. and monitored with a photodiode array (PDA) detector at 436 and 262 nm.
Evaluation of recombinant AtNCED3 kinetic parameters for Km was accomplished using Michaelis-Menten equation plotted with EnzFitter™ v2.0.18.0 (Biosoft). The Ki for inhibitors was determined using a Dixon plot and concentration ranges of 250, 200, 150, 100, 50 and 0 μM inhibitor in the presence of either 55, 30 or 10 μM 9-cis-neoxanthin 2.^5

CYP707A3 = assay: qRT-PCR transcript level in mannitol stressed plants: CYP707A3; type: in vivo, Arabidopsis thaliana; conditions: 10 and 33 μM, 6 hours post-compound treatment, normalized to UBQ10
Method: (§1) For each condition to be tested, three hundred wild-type Arabidopsis thaliana Col-0 seeds (LEHLE) were sterilized, vernalized and sewn onto 200 mL of Sunshine Mix #3 (Sun Gro) potting material in an 8×8×4 cm pot. Plants were watered continuously with 25 g/100 mL of 20-20-20 (PlantProdTM) fertilizer and grown at 22° C. with a 16 hour photoperiod for 22 days. Plants were pre-treated with 50 mL/pot of Buffer A (10 mM HEPES pH 6.5) (Sigma)+/-10 or 33 μM test compound for 2 hours. Plants were then soaked with 50 mL/pot of Buffer A containing 0.4 M mannitol (Sigma)+/-10 or 33 μM test compound. Non-treated/non-stressed control plants were simply soaked in Buffer A at the designated time points. Aerial plant tissue was harvested after 6, 12 and 48 hours from the time of initial inhibitor treatment and flash frozen in liquid nitrogen. Half of the tissue samples were lyophilized for metabolite profiling and the other half taken for quantitative reverse-transcription polymerase chain reaction (qRT-PCR) analysis. […] The resulting mRNA was quantified and checked for quality using a Nano-DropTM ND-1000 Spectrophotometer. QuantiTectTM Reverse Transcription Kit (Qiagen) was used to produce cDNA as directed by the manufacturer from 20 ng of starting mRNA. […] Relative changes in transcript level were normalized using UBQ10 and quantified as previously described.^41

CYP707A1 = assay: qRT-PCR transcript level in mannitol stressed plants: CYP707A1; type: in vivo, Arabidopsis thaliana; conditions: 10 and 33 μM, 6 hours post-compound treatment, normalized to UBQ10
Method: as §1

Rd29B = assay: qRT-PCR transcript level in mannitol stressed plants: Rd29B; type: in vivo, Arabidopsis thaliana; conditions: 10 and 33 μM, 6 hours post-compound treatment, normalized to UBQ10
Method: as §1

Structure (SMILES) | inhibition at 1000 µM (recombinant AtNCED3; 1 mM compound) [%] | Ki (recombinant AtNCED3) [µM] | CYP707A3 mRNA transcript level vs mannitol-stressed control (in words) (CYP707A3) | CYP707A1 mRNA transcript level vs mannitol-stressed control (in words) (CYP707A1) | inhibition of mannitol-induced Rd29b transcription (Rd29B) | relative inhibition of AtNCED3 activity (in words) (recombinant AtNCED3)
CCSCC=C(C)C#CC1(O)C(C)CC(=O)CC1(C)C (racemic) [Compound 13, (4S,5R/4R,5S)-(3′Z)-4-(5′-(Ethylthio)-3′-methylpent-3′-en-1′-ynyl)-4-hydroxy-3,3,5-trimethylcyclohexanone] | 75 | 93 | reductions in the accumulation of mRNA transcript levels | reductions in the accumulation of mRNA transcript levels | about 90% | –
C/C(C#C[C@@]12O[C@]1(C)C[C@@H](O)CC2(C)C)=C/CNc1ccccc1 [Compound 18, (1R,3S,6R)-(3′Z)-1,5,5-Trimethyl-6-(3′-methyl-5′-(phenylamino)-pent-3′-en-1-ynyl)-7-oxabicyclo[4.1.0]heptan-3-ol] | – | 87 | – | – | – | completely inhibited
C/C(C#C[C@@]12O[C@]1(C)C[C@@H](O)CC2(C)C)=C/CSc1ccccc1 [Compound 17, (1R,3S,6R)-(3′Z)-1,5,5-Trimethyl-6-(3′-methyl-5′-(phenylthio)-pent-3′-en-1′-ynyl)-7-oxa-bicyclo[4.1.0]heptan-3-ol] | – | 57 | – | – | – | completely inhibited
